Laboratory results reported in patent US6083481A, “Thrombus imaging agents” (Diatide, Inc., priority 1998, dated 2000).

Test system: human platelets in platelet-rich plasma
Test: Platelet aggregation inhibition assay (ADP-induced, platelet-rich plasma)
Assay type: cell-based
Details: fresh human platelet-rich plasma, aggregation induced by ADP 10 to 15 micromolar; read-out: IC50 (concentration of reagent that inhibits by 50% the aggregation of human platelets)
Method: Platelet aggregation studies were performed essentially as described by Zucker (1989, Methods in Enzymol. 169: 117-133). Briefly, platelet aggregation was assayed with or without putative platelet aggregation inhibitory compounds using fresh human platelet-rich plasma comprising 300,000 platelets per microlitre. Platelet aggregation was induced by the addition of a solution of adenosine diphosphate to a final concentration of 10 to 15 micromolar, and the extent of platelet aggregation monitored using a Bio/Data aggregometer (Bio/Data Corp., Horsham. Pa.). The concentrations of platelet aggregation inhibitory compounds used were varied from 0.1 to 500 μg/mL. The concentration of inhibitor that reduced the extent of platelet aggregation by 50% (defined as the IC50) was determined from plots of inhibitor concentration versus extent of platelet aggregation. An inhibition curve for peptide RGDS was determined for each batch of platelets tested as a positive control.
*concentration of reagent that inhibits by 50% the aggregation of human
platelets in plateletrich plasma induced to aggregate by the addition of
adenosine diphosphate (ADP).

- IC50: 15 µM
Substance: GRDGVRGDFCAcm GCAcm amide [Peptide P98]
